Experimental data: patent US4910225A, “Locally administrable therapeutic composition for inflammatory disease” (Senju Pharmaceutical Co., Ltd., priority 1988, dated 1990)

Columns and labels:
[1] = test system: atropine-resistant miosis; assay: Atropine-resistant miosis after paracentesis; type: in vivo, albino rabbits; conditions: for Miosis: 10 min after paracentesis
Description: The solutions of the following formulas were used.
Totally 28 male albino rabbits (4 rabbits×7 groups) with a body weight of about 2 kg werr used. They had been confirmed, before the experiment, to have mydriatic response to 1% atropine for at least 4 hours.
50 μl each of 1% atropine solution was instilled into both eyes of the animals one hour before the 1st paracenthesis, in which approx. 0.2 ml/eye of aqueous humor (primary aqueous humor) was collected. Topical application of 50 μl each of the test drug solutions was conducted 30 min before the paracenthesis. Pupil diameter of each eye was measured with a slide caliper immediately before and 10 min after the paracenthesis. The 2nd paracenthesis was conducted 90 min after the 1st one, in which approx. 0.2 ml/eye of aqueous humor (secondary aqueous humor) was collected.

[2] = Stability with polyvinyl pyrrolidone and sodium sulfite (Experimental Example 6); type: physicochemical; conditions: solution in which polyvinyl pyrrolidone and sodium sulfite coexist
[3] = test system: experimental ophthalmitis induced by bovine serum albumin in white rabbits (ophthalmitis II); assay: Anti-inflammatory effect in ophthalmitis II (intravenous bovine serum albumin relapse), gross severity scores; type: in vivo; conditions: for Anterior chamber opacity, degree of inhibition relative to physiological saline group / Balbar conjunctival injection, degree of inhibition relative to physiological saline group / Corneal opacity, degree of inhibition relative to physiological saline group / Discharge, degree of inhibition relative to physiological saline group / External + Internal Grand Total Score, degree of inhibition relative to physiological saline group / External Segment Total Score, degree of inhibition relative to physiological saline group / Internal Segment Total Score, degree of inhibition relative to physiological saline group / Iridic injection, degree of inhibition relative to physiological saline group / Morphological change of iris, degree of inhibition relative to physiological saline group / Palpebral conjunctival edema, degree of inhibition relative to physiological saline group / Palpebral conjunctival injection, degree of inhibition relative to physiological saline group: ophthalmitis II; for Anterior chamber opacity score (Internal Segment) / Balbar conjunctival injection score (External Segment) / Corneal opacity score (External Segment) / Discharge score (External Segment) / External + Internal Grand Total Score / External Segment Total Score / Internal Segment Total Score / Iridic injection score (Internal Segment) / Morphological change of iris score (Internal Segment) / Palpebral conjunctival edema score (External Segment) / Palpebral conjunctival injection score (External Segment): ophthalmitis II, 3, 6, 12 and 24 hours after intravenous BSA, mean ± SE
Description: Seventeen male white rabbits weighing about 2 kg were used. They were fed with 80 g of Labo RG-RO (Nippon Agricultural Co., Ltd.) daily and had free access to tap water.
After 28 days when ophthalmitis I had nearly recovered, 2.5% BSA solution was administered in a dose of 25 mg/ml/kg into the auricular vein to cause ophthalmitis (ophthalmitis II). The severity of ophthalmitis was rated according to the rating scale^(1) of Yamauchi et al., based on the Draize method in which an increased weight given to the internal segment of the eye. Observation was made with a frequency of once in one or two days during the peak period of inflammation and once in three or four days before and after the peak period for ophthalmitis I and 3, 6, 12 and 24 hours after intravenous injection of BSA for ophthalmitis II.
^(1) Hideyasu Yamauchi, Makoto Ingu, Tadashi Iso and Kozo Uda: Anti-inflammatory effect of fluorometholone ophthalmic solution in experimental uveitis in rabbits, Folia Ophthalmologica Japonica, 24: 969-79 (1973).
Gross observation was made on the day after injection of BSA into the vitreous body and with the animals arranged in the decreasing order of severity of ocular inflammation, grouping was carried out in such a manner that the intensity distribution would be uniform over the groups. Thus, a physiological saline group of 7 animals, a 0.1% Compound [I] instillation group of 4 animals and a 0.5% Compound [I] instillation group of 5 animals were provided. After this grouping procedure, the test drugs and saline were respectively instilled into both eyes of the rabbits, 50 μl per dose, 4 times a day. For induction of ophthalmitis II, each drug was instilled into both eyes, 50 μl per dose, immediately after injection of BSA into the auricular vein and at 1-hour intervals thereafter, for a total of 14 times.

Compound: Nc1c(CC(=O)[O-])cccc1C(=O)c1ccc(Br)cc1.O.[Na+] [Compound [I], Sodium 3-(4-bromobenzoyl)-2-aminophenylacetate monohydrate]
- Inhibition (miosis) ([1]; content 0.001%): 19.7 ± 6.08%
- Miosis ([1]; content 0.001%): 19.0 ± 1.44%
- Inhibition (miosis) ([1]; content 0.01%): 35.2 ± 6.75%
- Miosis ([1]; content 0.01%): 15.4 ± 1.60%
- Inhibition (miosis) ([1]; content 0.1%): 24.9 ± 16.4%
- Miosis ([1]; content 0.1%): 17.4 ± 3.80%
- Decomposition of Compound [I] [2]: the decomposition of Compound [I] was not observed either
- Anterior chamber opacity, degree of inhibition relative to physiological saline group ([3]; 0.1%): -47.4%
- Balbar conjunctival injection, degree of inhibition relative to physiological saline group ([3]; 0.1%): 27.0%
- Corneal opacity, degree of inhibition relative to physiological saline group ([3]; 0.1%): 57.1%
- Discharge, degree of inhibition relative to physiological saline group ([3]; 0.1%): 100%
- External + Internal Grand Total Score, degree of inhibition relative to physiological saline group ([3]; 0.1%): 35.7%
- External Segment Total Score, degree of inhibition relative to physiological saline group ([3]; 0.1%): 32.7%
- Internal Segment Total Score, degree of inhibition relative to physiological saline group ([3]; 0.1%): 40.7%
- Iridic injection, degree of inhibition relative to physiological saline group ([3]; 0.1%): 61.6%
- Morphological change of iris, degree of inhibition relative to physiological saline group ([3]; 0.1%): 44.2%
- Palpebral conjunctival edema, degree of inhibition relative to physiological saline group ([3]; 0.1%): 45.0%
- Palpebral conjunctival injection, degree of inhibition relative to physiological saline group ([3]; 0.1%): 29.8%
- Anterior chamber opacity score (Internal Segment) ([3]; 0.1%): 2.8 ± 0.8
- Balbar conjunctival injection score (External Segment) ([3]; 0.1%): 8.1 ± 0.4
- Corneal opacity score (External Segment) ([3]; 0.1%): 0.6 ± 0.2
- Discharge score (External Segment) ([3]; 0.1%): 0
- External + Internal Grand Total Score ([3]; 0.1%): 21.8 ± 2.1
- External Segment Total Score ([3]; 0.1%): 13.1 ± 1.1
- Internal Segment Total Score ([3]; 0.1%): 8.0 ± 1.2
- Iridic injection score (Internal Segment) ([3]; 0.1%): 2.8 ± 0.1
- Morphological change of iris score (Internal Segment) ([3]; 0.1%): 2.4 ± 0.4
- Palpebral conjunctival edema score (External Segment) ([3]; 0.1%): 1.1 ± 0.4
- Palpebral conjunctival injection score (External Segment) ([3]; 0.1%): 4.0 ± 0.3
- Anterior chamber opacity, degree of inhibition relative to physiological saline group ([3]; 0.5%): -47.4%
- Balbar conjunctival injection, degree of inhibition relative to physiological saline group ([3]; 0.5%): 27.0%
- Corneal opacity, degree of inhibition relative to physiological saline group ([3]; 0.5%): 57.1%
- Discharge, degree of inhibition relative to physiological saline group ([3]; 0.5%): 100%
- External + Internal Grand Total Score, degree of inhibition relative to physiological saline group ([3]; 0.5%): 34.2%
- External Segment Total Score, degree of inhibition relative to physiological saline group ([3]; 0.5%): 31.4%
- Internal Segment Total Score, degree of inhibition relative to physiological saline group ([3]; 0.5%): 33.3%
- Iridic injection, degree of inhibition relative to physiological saline group ([3]; 0.5%): 54.8%
- Morphological change of iris, degree of inhibition relative to physiological saline group ([3]; 0.5%): 32.6%
- Palpebral conjunctival edema, degree of inhibition relative to physiological saline group ([3]; 0.5%): 55.0%
- Palpebral conjunctival injection, degree of inhibition relative to physiological saline group ([3]; 0.5%): 60.5%
- Anterior chamber opacity score (Internal Segment) ([3]; 0.5%): 2.8 ± 0.5
- Balbar conjunctival injection score (External Segment) ([3]; 0.5%): 8.1 ± 0.3
- Corneal opacity score (External Segment) ([3]; 0.5%): 0.6 ± 0.2
- Discharge score (External Segment) ([3]; 0.5%): 0
- External + Internal Grand Total Score ([3]; 0.5%): 22.3 ± 1.1
- External Segment Total Score ([3]; 0.5%): 13.3 ± 0.6
- Internal Segment Total Score ([3]; 0.5%): 9.0 ± 0.7
- Iridic injection score (Internal Segment) ([3]; 0.5%): 3.3 ± 0.3
- Morphological change of iris score (Internal Segment) ([3]; 0.5%): 2.9 ± 0.3
- Palpebral conjunctival edema score (External Segment) ([3]; 0.5%): 0.9 ± 0.2
- Palpebral conjunctival injection score (External Segment) ([3]; 0.5%): 3.7 ± 0.1
- Inhibitory effect on inflammatory symptoms induced by intravenous antigen ([3]; both concentrations (0.1% and 0.5%), gross observation): substantially complete inhibition at both concentrations
